The text below walks through data of patent publication US8143257B2, “Substituted phenols as active agents inhibiting VEGF production” (PTC Therapeutics, Inc., priority 2004, dated 2012).

The first assay has as its system hypoxia-inducible endogenous VEGF expression. As to the kind of experiment: Assay to evaluate effect on hypoxia-inducible endogenous VEGF expression (VEGF ELISA, HeLa cells). The format is cell-based. Particulars: HeLa cells cultured 24-48 hours under hypoxic conditions (1% O2, 5% CO2); VEGF in conditioned media by ELISA; read-out: ELISA EC50 (effective concentration required to lower the amount of VEGF translation by 50%). The method, then:
Assay to Evaluate Effect on Hypoxia-Inducible Endogenous VEGF Expression
The ability of the compounds of the invention to modulate hypoxia-inducible endogenous VEGF expression is analyzed as follows. VEGF protein levels are monitored by an ELISA assay (R&D Systems). Briefly, HeLa cells are cultured for 24-48 hours under hypoxic conditions (1% O2, 5% CO2, balanced with nitrogen) in the presence or absence of a compound of the invention. The conditioned media is then assayed by ELISA, and the concentration of VEGF is calculated from the standard ELISA curve of each assay.
A dose-response analysis is performed using the ELISA assay and conditions described above. A series of, e.g., seven different concentrations are analyzed. In parallel, a dose-response cytotoxicity assay is performed using Cell Titer Glo (Promega) under the same conditions as the ELISA to ensure that the inhibition of VEGF expression is not due to the cytotoxicity. Dose-response curves are plotted using percentage inhibition versus concentration of the compound, and EC50 and CC50 values are generated for each compound with the maximal inhibition set as 100% and the minimal inhibition as 0%.
The most preferred compounds of the invention are those with μM values of 3 or less.
On to `O=C(Oc1ccccc1Br)N1CCc2ccccc21` [2,3-Dihydro-indole-1-carboxylic acid 2-bromo-phenyl ester], for which the EC50 was more than 30 µM. In the case of `Cc1ccc(OC(=O)N2C(C)CCCC2C)c(Br)c1` (stereo not shown) [2,6-Dimethyl-piperidine-1-carboxylic acid 2-bromo-4-methyl-phenyl ester], the EC50 is more than 30 µM. On to `Cc1ccc2cc(OC(=O)N3CCC(C)CC3)ccc2n1` [4-Methyl-piperidine-1-carboxylic acid 2-methyl-quinolin-6-yl ester], for which the EC50 is more than 30 µM.

Still in this assay, the particulars now being: Homo sapiens, HeLa, read-out: ELISA EC50 (effective concentration required to lower the amount of VEGF translation by 50%).
`CN(C)C(=O)Oc1ccc2cc(Br)ccc2c1` [Dimethyl-carbamic acid 6-bromo-naphthalen-2-yl ester]: the EC50 was more than 10 µM. Regarding `NC(=O)C1(N2CCCCC2)CCN(C(=O)Oc2ccc3ccccc3c2Br)CC1` [4′-Carbamoyl-[1,4′]bipiperidinyl-1′-carboxylic acid 1-bromo-naphthalen-2-yl ester], the EC50 turned out to be 6.54 µM. Turning to `CN1CCCN(C(=O)Oc2ccccc2Br)CC1` [4-Methyl-[1,4]diazepane-1-carboxylic acid 2-bromo-phenyl ester], the EC50 is more than 30 µM. Turning to `CC(=O)c1c(OC(=O)N2CCCN(C)CC2)ccc2ccccc12` [4-Methyl-[1,4]diazepane-1-carboxylic acid 1-acetyl-naphthalen-2-yl ester], the EC50 was more than 30 µM.

The same assay, now with this note: Homo sapiens; HeLa cells cultured 24-48 hours under hypoxic conditions (1% O2, 5% CO2); VEGF in conditioned media by ELISA; read-out: ELISA EC50 (effective concentration required to lower the amount of VEGF translation by 50%).
In the case of `O=C(Oc1cc2ccccc2cn1)N1CCc2ccccc21` [2,3-Dihydro-indole-1-carboxylic acid isoquinolin-3-yl ester], the EC50 was more than 30 µM.

On to `O=C(Oc1c(Cl)cc(Cl)cc1Cl)N1CCCCC1` [Piperidine-1-carboxylic acid 2,4,6-trichloro-phenyl ester], for which the EC50 was more than 30 µM. For `O=C(Oc1ccccc1Br)N1CCC(Cc2ccccc2)CC1` [4-Benzyl-piperidine-1-carboxylic acid 2-bromo-phenyl ester], the EC50 is more than 30 µM.

Consider `O=C(Oc1c(Cl)cc(Cl)cc1Cl)N1CCCc2ccccc21` [3,4-Dihydro-2H-quinoline-1-carboxylic acid 2,4,6-trichloro-phenyl ester], for which the EC50 was more than 30 µM. On the same count and under the same terms, with `O=C(Oc1cc2ccccc2cn1)N1CCN(c2ccccc2)CC1` [4-Phenyl-piperazine-1-carboxylic acid isoquinolin-3-yl ester] the figure was more than 30 µM; with `Cc1ccc2cc(OC(=O)N3CCc4ccccc4C3)ccc2n1` [3,4-Dihydro-1H-isoquinoline-2-carboxylic acid 2-methyl-quinolin-6-yl ester], more than 30 µM. As to `CCC(NC(=O)Oc1ccc2ccccc2c1)(C(F)(F)F)C(F)(F)F` [(1,1-Bis-trifluoromethyl-propyl)-carbamic acid naphthalen-2-yl ester], the EC50 is more than 30 µM. Regarding `O=C(Nc1ccc2ccccc2c1Cl)N1CCC(Cc2ccccc2)CC1` [4-Benzyl-piperidine-1-carboxylic acid (1-chloro-naphthalen-2-yl)-amide], the EC50 was more than 10 µM. On to `CC1CCN(C(=O)Oc2ccc3ccccc3c2Br)CC1` [4-Methyl-piperidine-1-carboxylic acid 1-bromo-naphthalen-2-yl ester], for which the EC50 stood at 0.469 µM. For `CS(=O)(=O)Nc1c(OC(=O)N2CCN(c3ccccc3)CC2)ccc2ccccc12` [4-Phenyl-piperazine-1-carboxylic acid 1-methanesulfonylamino-naphthalen-2-yl ester], the EC50 is more than 5 µM. For `CC1CCCCN1C(=O)Oc1cc2ccccc2cn1` (stereo not shown) [2-Methyl-piperidine-1-carboxylic acid isoquinolin-3-yl ester], the EC50 is more than 30 µM. As to `O=C(Nc1ccc2ccccc2c1)N1CCCCC1` [Piperidine-1-carboxylic acid naphthalen-2-ylamide], the EC50 is more than 10 µM. Same read-out and setting: next, `COc1ccc2ccc(OC(=O)N3CCN(c4ccc(Cl)cc4)CC3)c(Br)c2c1` [4-(4-Chloro-phenyl)-piperazine-1-carboxylic acid 1-bromo-7-methoxy-naphthalen-2-yl ester]: more than 10 µM; `CC(=O)c1c(OC(=O)N2CCC(C)CC2)ccc2ccccc12` [4-Methyl-piperidine-1-carboxylic acid 1-acetyl-naphthalen-2-yl ester]: 1.85 µM. As to `O=C(Oc1cc(Cl)c(Cl)cc1Cl)N1CCC(Cc2ccccc2)CC1` [4-Benzyl-piperidine-1-carboxylic acid 2,4,5-trichloro-phenyl ester], the EC50 is 7.09 µM.

With `Cc1ccc2cc(OC(=O)N3CCC(Cc4ccccc4)CC3)ccc2n1` [4-Benzyl-piperidine-1-carboxylic acid 2-methyl-quinolin-6-yl ester], the EC50 is more than 30 µM. Consider `CS(=O)(=O)Nc1c(OC(=O)N2CCC(Cc3ccccc3)CC2)ccc2ccccc12` [4-Benzyl-piperidine-1-carboxylic acid 1-methanesulfonylamino-naphthalen-2-yl ester], for which the EC50 was more than 5 µM. For `CC(=O)c1c(OC(=O)N2CC(C)CC(C)C2)ccc2ccccc12` (stereo not shown) [3,5-Dimethyl-piperidine-1-carboxylic acid 1-acetyl-naphthalen-2-yl ester], the EC50 is 0.764 µM.

For the molecule `O=C(Oc1cc2ccccc2cn1)N1CCC(Cc2ccccc2)CC1` [4-Benzyl-piperidine-1-carboxylic acid isoquinolin-3-yl ester], the EC50 was more than 30 µM.

On to `CC1CC(C)CN(C(=O)Oc2c(Cl)cc(Cl)cc2Cl)C1` (stereo not shown) [3,5-Dimethyl-piperidine-1-carboxylic acid 2,4,6-trichloro-phenyl ester], for which the EC50 was more than 30 µM. Consider `O=C(NC1CCCCC1)Oc1ccccc1Br` [Cyclohexyl-carbamic acid 2-bromo-phenyl ester], for which the EC50 was more than 30 µM. On to `CC1CCN(C(=O)Oc2cc(Cl)c(Cl)cc2Cl)CC1` [4-Methyl-piperidine-1-carboxylic acid 2,4,5-trichloro-phenyl ester], for which the EC50 was determined as 16.2 µM.

Regarding `O=C(Oc1ccc2ccccc2c1Br)N1CCC2(CC1)OCCO2` [1,4-Dioxa-8-aza-spiro[4.5]decane-8-carboxylic acid 1-bromo-naphthalen-2-yl ester], the EC50 turned out to be 1.51 µM. On to `O=C(Oc1cc(Cl)c(Cl)cc1Cl)N1CCc2ccccc2C1` [3,4-Dihydro-1H-isoquinoline-2-carboxylic acid 2,4,5-trichloro-phenyl ester], for which the EC50 came to 18.7 µM. With `O=C(Nc1ccc2ccccc2c1Br)N1CCCCC1` [Piperidine-1-carboxylic acid (1-bromo-naphthalen-2-yl)-amide], the EC50 is more than 10 µM.

On to `Cc1ccc2cc(OC(=O)N3CCCCC3)ccc2n1` [Piperidine-1-carboxylic acid 2-methyl-quinolin-6-yl ester], for which the EC50 was more than 30 µM. Consider `O=C(Oc1c(Cl)cc(Cl)cc1Cl)N1CCN(c2ccccc2)CC1` [4-Phenyl-piperazine-1-carboxylic acid 2,4,6-trichloro-phenyl ester], for which the EC50 was found to be 5.78 µM. As to `O=C(Oc1ccc2ccccc2c1Br)N1CCCCC1` [Piperidine-1-carboxylic acid 1-bromo-naphthalen-2-yl ester], the EC50 is 0.27 µM. Consider `Cc1ccc2cc(OC(=O)N3CCN(c4ccccc4)CC3)ccc2n1` [4-Phenyl-piperazine-1-carboxylic acid 2-methyl-quionolin-6-yl ester], for which the EC50 was more than 30 µM. In the case of `O=C(Oc1c(Cl)cc(Cl)cc1Cl)N1CCc2ccccc2C1` [3,4-Dihydro-1H-isoquinoline-2-carboxylic acid 2,4,6-trichloro-phenyl ester], the EC50 is more than 30 µM. For `O=C(Nc1ccc2ccccc2c1Cl)N1CCCCC1` [Piperidine-1-carboxylic acid (1-chloro-naphthalen-2-yl)-amide], the EC50 was more than 10 µM.

With `COc1ccc2ccc(OC(=O)N3CCN(c4ccccc4)CC3)c(Br)c2c1` [4-Phenyl-piperazine-1-carboxylic acid 1-bromo-7-methoxy-naphthalen-2-yl ester], the EC50 was more than 10 µM. Take `O=C(Oc1cc(Cl)c(Cl)cc1Cl)N1CCN(c2ccccc2)CC1` [4-Phenyl-piperazine-1-carboxylic acid 2,4,5-trichloro-phenyl ester]: the EC50 was more than 30 µM. For the molecule `O=C(Oc1ccc2cc(Br)ccc2c1)N1CCCCC1` [Piperidine-1-carboxylic acid 6-bromo-naphthalen-2-yl ester], the EC50 was more than 10 µM. As for `CC1CCN(C(=O)Oc2cc3ccccc3cn2)CC1` [4-Methyl-piperidine-1-carboxylic acid isoquinolin-3-yl ester], the EC50 was more than 30 µM. Take `COc1ccc2ccc(OC(=O)N3CCC(C(O)(c4ccccc4)c4ccccc4)CC3)c(Br)c2c1` [4-(Hydroxy-diphenyl-methyl)-piperidine-1-carboxylic acid 1-bromo-7-methoxy-naphthalen-2-yl ester]: the EC50 was more than 10 µM.

Regarding `CS(=O)(=O)Nc1c(O)ccc2ccccc12` [N-(2-Hydroxy-naphthalen-1-yl)-methanesulfonamide], the EC50 was more than 5 µM. In the case of `O=C(Oc1ccc2ccccc2c1)N1CCCCC1` [Piperidine-1-carboxylic acid naphthalen-2-yl ester], the EC50 was more than 10 µM. Still for that read-out and setting: with `O=C(Nc1ccc2ccccc2c1Cl)N1CCN(c2ccc(Cl)cc2)CC1` [4-(4-Chloro-phenyl)-piperazine-1-carboxylic acid (1-chloro-naphthalen-2-yl)-amide] the figure was more than 10 µM.
